We go through one compound from patent US7563774B2, “Combination of FBPase inhibitors and antidiabetic agents useful for the treatment of diabetes” (Metabasis Therapeutics, Inc., priority 2000, dated 2009).

Test [1] deals with C57BL/KsJ db/db mice. In words: Chronic combination treatment of insulin and Compound J in db/db mice (Example BB). Particulars: combination group versus insulin alone. The class given is in vivo, mouse. How it is done: Male C57BL/KsJ db/db mice were purchased at 5 weeks of age from Clea Japan, Inc. (Tokyo, Japan). […] At 19 weeks of age, animals were divided into 2 groups (n=6/group). […] Blood glucose levels in tail vein samples were measured by means of a Glucoloader-F, an automatic glucose analyzer, (A&T Co., Ltd., Tokyo, Japan).

For test [2], the system named is Goto-Kakizaki (GK) rats. The experiment in a line: Acute combination treatment of insulin and an FBPase inhibitor in the Goto-Kakizaki rat (Example CC). It counts as in vivo. As for the experimental part:
Male Goto-Kakizaki (GK) rats were purchased at 9 weeks of age from Charles River Japan, Inc. (Tokyo, Japan). The rats were maintained under standard vivarium conditions (24-26° C., 12-hour light cycle, 12-hour dark cycle) and received standard chow and water ad libitum. At 48 weeks of age, animals were divided into 4 groups (n=6/group) after an overnight fast. The treatment groups were control, Compound J, insulin, and combination of Compound J and insulin. […] Insulin (human recombinant insulin, Penfill N300, Novo Nordisk, Denmark) was subcutaneously injected at the dose of 1.5 U/kg. Blood glucose levels in tail vein samples were measured by means of a Glucoloader-F, an automatic glucose analyzer, (A&T Co., Ltd., Tokyo, Japan).

For test [3], the system named is Db/db or ob/ob mice. The experiment in a line: Acute combination treatment of a glycogen phosphorylase inhibitor and an FBPase inhibitor in db/db or ob/ob mice (Example FF). It counts as in vivo, mouse. Particulars: 0.5 to 300 mg/kg p.o. How it is done:
Db/db or ob/ob mice are purchased at 5 weeks of age from Jackson Laboratories (Bar Harbor, Me.). The mice are maintained under standard vivarium conditions (24-26° C., 12-hour light cycle, 12-hour dark cycle) and receive standard chow and water ad libitum. At more than 10 weeks of age, animals are divided into 4 groups (n=5 to 7/group). […] Food is made available after treatment. Blood glucose levels in tail vein samples are measured by means of standard manual or automated methods.

With `CCOC(=O)[C@H](C)NP(=O)(N[C@@H](C)C(=O)OCC)c1ccc(-c2nc(N)sc2CC(C)C)o1` [Compound J, 2-Amino-5-isobutyl-4-{2-[5-(N,N′-bis((S)-1-ethoxycarbonyl)ethyl)phosphonamido]furanyl}thiazole], the “decrease of the insulin dose required to reduce plasma glucose to target levels” value in test [1] is listed as around 40%. For the same compound, the plasma glucose lowering entry in test [2] (GK rats, acute) is given as “progressively decreased plasma glucose”. In addition, the “Plasma Glucose, % of before” value is “(65.6 +/− 6.6) %” in test [2] (after 2 hour), “(51.0 +/− 2.7) %” in test [2] (after 4 hours), “(22.6 +/− 6.7) %” in test [2] (after 6 hours) and “(100.0 +/− 0.0) %” in test [2] (before (0 hour)). Besides, the “Plasma Glucose” value in test [2] (after 2 hour, Compound J 50 mg/kg p.o., insulin 1.5 U/kg s.c.) amounted to 106.3 ± 11.0 mg/dL; in test [2] (after 4 hours), 79.6 ± 4.9 mg/dL; in test [2] (after 6 hours) it was 35.4 ± 10.8 mg/dL; in test [2] (before (0 hour)), 161.8 ± 6.6 mg/dL. In test [3], the blood glucose lowering result is on record as “significantly lower blood glucose relative to control values”.
